Data on ten molecules can be found in US5578622A, “Isothiazole derivatives and their uses” (Asamura Patent Office, priority 1994, dated 1996).

The test system of assay [1] is Pseudoperonospora cubensis. Nature of the assay: Test for controlling effect on downy mildew of cucumber. Format: in vivo. The settings on record: 168 h, 200 ppm spray, one day before inoculation, cucumber 2-leaf stage, read-out: Controlling effect (control of disease), Downy mildew of cucumber. How it is done:
2-2 Test for controlling effect on downy mildew of cucumber (Pseudoperonospora cubensis) A test compound adjusted to 200 ppm was sprayed onto cucumber at the 2-leaf stage cultivated in pots. After one day, the cucumber was inoculated by spraying the zoospore suspension of Pseudoperonospora cubensis. After inoculation, the cucumber was placed in a 25° C.-humid room for 1 day and then in a greenhouse for 6 days. Thus, the cucumber was made to be infected with downy mildew. The control of disease of the test compound is calculated by comparing the degree of infection of each leaf with that in the untreated plot. The control of disease is shown as a controlling effect in the same manner as in Test Example 2-1.

The test system of assay [2] is Gibberella fujikuroi ("Bakanae" disease of rice). Description: Test for rice seed-disinfecting effect. The settings on record: Fusarium fujikuroi, 504 h, seed immersion 25° C. 24 hours, three weeks after treatment, read-out: Controlling effect (control of disease), "Bakanae" disease of rice. The format is in vivo. On the procedure: 2-1 Test for rice seed-disinfecting effect
Unhulled rice infected with Gibberella fujikuroi ("Bakanae" disease of rice) was immersed in a test compound adjusted to 1000 ppm at 25° C. for 24 hours. Water was lightly swished off the seed, which was then sowed and germinated for two days. Three weeks after treatment with the solution containing the compound, the rate of the infected seedlings was examined, and the control of disease was calculated by comparison with that of the untreated plot. The control of disease was shown as a controlling effect on the basis of the following standard.

A further assay relates to Trichoderma viride. Nature of the assay: Test for wood rotting-preventing effect (mycelium growth inhibition on malt extract agar). Format: cell-based. The settings on record: 28° C.±2° C., 2 to 10 days, read-out: Rotting preventing effect (mycelium growth-inhibitory rate), TRV. On the procedure:
(§1) The following fungi were cultured in agar media, respectively, and mycelial disks on the media were stamped out together with the agar using a cork borer of 4 mm in diameter. The resulting mycelial disks on agar were used as an inoculum. Each test compound of 50 ppm was added to a malt extract agar medium and added in parts to Petri dishes. The above prepared inoculum was put on the Petri dishes and cultured at 28° C.±2° C. Two to ten days after inoculation, the diameter of the mycelial disk of each fungus was measured, and the mycelium growth-inhibitory rate was obtained according to the following equation. [formula] The mycelium growth-inhibitory rate (%) is indicated by the following symbols as a fungicidal effect on each fungus, and the results are shown in Table 2. | TRV: Trichoderma viride

In another assay the test system is Aspergillus niger. The assay is described as above. The settings on record: 28° C.±2° C., 2 to 10 days, read-out: Rotting preventing effect (mycelium growth-inhibitory rate), ASN. The format is cell-based. How it is done:
as §1, with “ASN: Aspergillus niger” for “TRV: Trichoderma viride”

Another assay has as its system Rhizoctonia solani. Nature of the assay: Test for controlling effect on sheath blight of rice. The settings on record: 120 h, 200 ppm spray, 24 hours after inoculation, rice 4-leaf stage, five days after inoculation, read-out: Controlling effect (control of disease), Sheath blight of rice. Format: in vivo. How it is done: 2-3 Test for controlling effect on sheath blight of rice (Rhizoctonia solani) Rice seedlings at the 4-leaf stage were inoculated with the mycelium of sheath blight of rice (Rhizoctonia solani). After 24 hours, a test medicine solution adjusted to 200 ppm was sprayed onto the seedlings. After air-drying, the seedlings were placed in a humid room for 24 hours where the temperature was kept at 28° C. and humidity was kept at 98%. Thereafter, the seedlings were transferred to a greenhouse, and five days after inoculation, the degree of infected area was examined. The control of disease was calculated by comparison with that in the untreated plot. The control of disease is shown as a controlling effect in the same manner as in Test Example 2-1.

Another assay relates to Tyromyces palustris. Description: Test for wood rotting-preventing effect (mycelium growth inhibition on malt extract agar). Format: cell-based. The settings on record: 28° C.±2° C., 2 to 10 days, read-out: Rotting preventing effect (mycelium growth-inhibitory rate), TYP. How it is done:
as §1, with “TYP: Tyromyces palustris” for “TRV: Trichoderma viride”

The next assay has as its system Rhizopus nigricans. The assay is described as above. Format: cell-based. The settings on record: Rhizopus stolonifer, 28° C.±2° C., 2 to 10 days, read-out: Rotting preventing effect (mycelium growth-inhibitory rate), RHN. How it is done:
as §1, with “RHN: Rhizopus nigricans” for “TRV: Trichoderma viride”

Consider `CCS(=O)(=O)c1snc(OCOCC#CI)c1C#N` [Compound 94], for which the pest or weed control at 200 ppm (in assay [1]; in the assay on Rhizoctonia solani) was 95 to 100% each time. Moreover, the pest or weed control at 1000 ppm in assay [2] was 95 to 100%. Moreover, the inhibition at 50 ppm with Trichoderma viride, in the assay with Aspergillus niger, in the assay on Tyromyces palustris and in the assay on Rhizopus nigricans was 95 to 100% each time.
For `CC(=O)Oc1nsc(SCOCC#CI)c1C#N` [Compound 67], the pest or weed control at 200 ppm in assay [1] fell in the range of 80 to 94%; in the assay with Rhizoctonia solani, 95 to 100%. Besides, the pest or weed control at 1000 ppm in assay [2] was in the range of 80 to 94%. Further, the inhibition at 50 ppm with Trichoderma viride was 80 to 94%; in the assay with Aspergillus niger it was 80 to 94%; with Tyromyces palustris, 95 to 100%; with Rhizopus nigricans it was 95 to 100%.
Turning to `CC(OCC#CI)Sc1snc(OC(F)F)c1C#N` (stereo not shown) [Compound 127], the pest or weed control at 200 ppm (in assay [1]; in the assay with Rhizoctonia solani) was 95 to 100% throughout. For the same molecule, in assay [2], the pest or weed control at 1000 ppm is 95 to 100%. Moreover, the inhibition at 50 ppm in the assay with Trichoderma viride, with Aspergillus niger, in the assay with Tyromyces palustris and in the assay with Rhizopus nigricans was 95 to 100% in each case.
Take `CSc1snc(OCOC(C)C#CI)c1C#N` (stereo not shown) [Compound 110]: the pest or weed control at 200 ppm (in assay [1]; in the assay on Rhizoctonia solani) was 95 to 100% throughout. For the same molecule, in assay [2], the pest or weed control at 1000 ppm was in the range of 95 to 100%. In addition, the inhibition at 50 ppm with Trichoderma viride, in the assay with Aspergillus niger, with Tyromyces palustris and in the assay on Rhizopus nigricans was 95 to 100% in each case.
Turning to `CC(C)(C#CI)OCOc1nsc(S(C)(=O)=O)c1C#N` [Compound 103], the pest or weed control at 200 ppm (in assay [1]; in the assay with Rhizoctonia solani) was 95 to 100% each time. In addition, the pest or weed control at 1000 ppm in assay [2] was in the range of 95 to 100%. For the same molecule, the inhibition at 50 ppm in the assay with Trichoderma viride was 95 to 100%; with Aspergillus niger, 95 to 100%; in the assay on Tyromyces palustris it was 95 to 100%; with Rhizopus nigricans, 80 to 94%.
With `CSc1snc(OCOC(C)(C)C#CI)c1C#N` [Compound 100, 3-(3-iodo-l,l-dimethyl-2-propynyloxymethyloxy)-4-cyano-5-methylthioisothiazole], the pest or weed control at 200 ppm (in assay [1]; in the assay with Rhizoctonia solani) was 95 to 100% in each case. For the same molecule, the pest or weed control at 1000 ppm in assay [2] fell in the range of 95 to 100%. In addition, the inhibition at 50 ppm with Trichoderma viride was 95 to 100%; in the assay on Aspergillus niger, 80 to 94%; in the assay with Tyromyces palustris, 95 to 100%; with Rhizopus nigricans, 80 to 94%.
For `CC(OCC#CI)Oc1nsc(SC(F)F)c1C#N` (stereo not shown) [Compound 122], the pest or weed control at 200 ppm (in assay [1]; in the assay with Rhizoctonia solani) was 95 to 100% each time. Further, the pest or weed control at 1000 ppm in assay [2] lay in the range of 95 to 100%. Also, the inhibition at 50 ppm in the assay on Trichoderma viride, with Aspergillus niger, in the assay with Tyromyces palustris and in the assay with Rhizopus nigricans was 95 to 100% throughout.
As for `CCS(=O)(=O)c1snc(OCCC#CI)c1C#N` [Compound 78], the pest or weed control at 200 ppm lay within 80 to 94% in assay [1] and 95 to 100% in the assay on Rhizoctonia solani. Moreover, the pest or weed control at 1000 ppm in assay [2] lay in the range of 95 to 100%. Moreover, the inhibition at 50 ppm in the assay with Trichoderma viride, in the assay with Aspergillus niger, with Tyromyces palustris and in the assay on Rhizopus nigricans was 95 to 100% in each case.
For `COc1nsc(SCOCC#CI)c1C#N` [Compound 53, 3-methoxy-4-cyano-5-(3-iodo-2-propynyloxymethylthio)isothiazole], the pest or weed control at 200 ppm (in assay [1]; with Rhizoctonia solani) was 95 to 100% throughout. The pest or weed control at 1000 ppm in assay [2] was in the range of 95 to 100%. The inhibition at 50 ppm fell in the range of 95 to 100% with Trichoderma viride, 95 to 100% in the assay with Aspergillus niger, 95 to 100% with Tyromyces palustris and 80 to 94% with Rhizopus nigricans.
As to `CC(C#CI)OCOc1nsc(N(C)C)c1C#N` (stereo not shown) [Compound 115], the pest or weed control at 200 ppm lay in the range of 80 to 94% in assay [1] and 95 to 100% with Rhizoctonia solani. Further, the pest or weed control at 1000 ppm in assay [2] was in the range of 95 to 100%. For the same molecule, the inhibition at 50 ppm in the assay on Trichoderma viride, in the assay with Aspergillus niger, in the assay on Tyromyces palustris and in the assay with Rhizopus nigricans was 95 to 100% each time.
